US11993640B2, “Treating inflammatory lung disease” (United States Government as represented by the Department …, priority 2019, dated 2024)
Non-standard residues stand in square brackets, D forms with d. Residues, ends and D or L forms follow the SMILES beside them. *: point of attachment. Phenylacetyl(2,3,4,5,6-F5) = O=C(Cc1c(F)c(F)c(F)c(F)c1F)*; Phe(4-Cl) = N[C@@H](Cc1ccc(Cl)cc1)C(=O)O; hArg = N=C(N)NCCCC[C@H](N)C(=O)O; 12Ado = NCCCCCCCCCCCC(=O)O; Nle = CCCC[C@H](N)C(=O)O; Orn = NCCC[C@H](N)C(=O)O; Abu = CC[C@H](N)C(=O)O; PhAc = O=C(Cc1ccccc1)*; Aoc = NCCCCCCCC(=O)O

Tests used:
Assay type in all cases: cell-based, human
Conditions in all cases: 5 μM, 72 h; relative to MIA602 = 1; Table 3A
KATOIII cells = test: In vitro cell viability, stomach cancer KATOIII
Method: (§1) The inhibitory effects of the various synthesized GHRH antagonists were tested in cell proliferation assays in various human cancer cell lines including stomach cancer (KATOIII, N87), colon cancer (HT-29), urothelial cancer (J82, RT4), pancreatic cancer (PANC-1, CFPAC-1), prostatic cancer (PC3), breast cancer (MX-1, HCC1806), ovarian cancer (SK-OV-3, OVCAR-3) and lung cancer (HCC827, H460).
(§2) Cell culture. Human cancer cell lines including pancreatic (PANC-1 and CFPAC-1), lung (HCC827 and H460), stomach (NCI-N87 and KATOIII), urothelial (J82, RT4), prostatic (PC3), breast (MX-1 and HCC 1806), colorectal (HT-29), and ovarian (SK-OV-3 and OVCAR-3) were obtained from the American Type Culture Collection (ATCC) and cultured at 37° C. in a humidified 95% air/5% CO2 atmosphere in the medium recommended by ATCC.
(§3) In vitro cell viability. Cell viability was analyzed as follows: cancer cells including pancreatic (PANC-1 and CFPAC-1), lung (HCC827 and H460), stomach (NCI-N87 and KATOIII), urothelial (J82, RT4), prostatic (PC3) and breast (MX-1 and HCC 1806), colorectal (HT-29) and ovarian (SK-OV-3 and OVCAR-3) were grown on 96 well plates to ˜60% confluence, the cells were starved for 24 h in culture medium containing 0.5% FBS. Cells were then treated with GHRH antagonists MIA602 AVR compounds at concentrations of 1, 2.5 or 5 μM, or vehicle (0.1% DMSO) in quintuplicates for 72 hours. The medium was replaced every 48 hours. Cell viability was measured using CellTiter 96 aqueous one solution kit (Promega). Inhibitory effects of tested AVR compounds in comparison to that of MIA602 are presented as inhibitory potency.
(§4) Inhibitory effects of selected AVR compounds in comparison to that of MIA602 are presented as inhibitory potency (e.g., percentage of inhibition). […] The cell lines tested including lung cancer HCC827 (FIG. 2A), pancreatic cancer CFPAC-1 (FIG. 2B), stomach cancer N87 (FIG. 2C), colon cancer HT-29 (FIG. 2D), breast cancers MX-1 and HCC1806 (FIGS. 2E, F). Based on the results of cell proliferation assay after cancer cells were treated with antagonist at concentration of 5 μM for 72H, the relative inhibitory potency of AVR antagonists in comparison to MIA-602 is summarized in Table 3 A and B. Over 60 AVR compounds were tested in 12 cancer cell lines.

HCC827 cells = test: In vitro cell viability, lung cancer HCC827
Method: as §1, §2, §3, §4
(§5) Based on the results of cell proliferation assay after cancer cells were treated with antagonist at concentration of 5 µM for 72H, * at concentration of 2 µM for 72 H.

CFPAC-1 cells = test: In vitro cell viability, pancreatic cancer CFPAC-1
Method: as §1, §2, §3, §4, §5

Row | SMILES | Relative inhibitory potency, Stomach KATOIII (KATOIII cells) | Relative inhibitory potency, Lung HCC827 (HCC827 cells) | Relative inhibitory potency, Pancreatic CFPAC-1 (CFPAC-1 cells)
1 | CCCC[C@H](NC(=O)[C@@H](NC(=O)[C@H](CC(=O)O)NC(=O)[C@H](CCC(N)=O)NC(=O)[C@H](CC(C)C)NC(=O)[C@H](CC(C)C)NC(=O)[C@H](CCCCN)NC(=O)[C@H](CCCNC(=N)N)NC(=O)[C@H](C)NC(=O)[C@H](CO)NC(=O)[C@H](CC(C)C)NC(=O)[C@H](CCC(N)=O)NC(=O)[C@H](CC)NC(=O)[C@H](CC(C)C)NC(=O)[C@@H](NC(=O)[C@H](CCCCN)NC(=O)[C@H](CCCNC(=N)N)NC(=O)[C@H](Cc1ccc(OC)cc1)NC(=O)[C@H](CCCNC(=N)N)NC(=O)[C@H](CC(N)=O)NC(=O)[C@@H](NC(=O)[C@H](Cc1ccc(Cl)cc1)NC(=O)[C@@H](NC(=O)[C@H](C)NC(=O)[C@H](CC(=O)O)NC(=O)[C@@H](CCCNC(=N)N)NC(=O)[C@H](Cc1ccc(O)cc1)NC(=O)CCCCCCCCCCCNC(=O)Cc1ccccc1)[C@@H](C)CC)[C@@H](C)O)C(C)C)[C@@H](C)CC)C(=O)N[C@H](CCCNC(=N)N)C(=O)N[C@@H](CCCCNC(=N)N)C(=O)NC [AVR-234, PhAC-Ada-Tyr-DArg-Asp-Ala-Ile-Cpa-Thr-Asn-Arg-Tyr(Me)-Arg-Lys-Val-Leu-Abu-Gln-Leu-Ser-Ala-Arg-Lys-Leu-Leu-Gln-Asp-Ile-Nle-DArg-Har-NHCH3] ({PhAc-12Ado}-Y[dR]DAI[Phe(4-Cl)]TNRY(Me)RKVL[Abu]QLSARKLLQDI[Nle][dR][hArg]-NHMe) | 1.709 | 4.510 | 2.205
2 | CCCC[C@H](NC(=O)[C@@H](NC(=O)[C@H](CC(=O)O)NC(=O)[C@H](CCC(N)=O)NC(=O)[C@H](CC(C)C)NC(=O)[C@H](CC(C)C)NC(=O)[C@H](CCCN)NC(=O)[C@H](Cc1c[nH]cn1)NC(=O)[C@H](C)NC(=O)[C@H](CO)NC(=O)[C@H](CC(C)C)NC(=O)[C@H](CCC(N)=O)NC(=O)[C@H](CC)NC(=O)[C@H](CC(C)C)NC(=O)[C@@H](NC(=O)[C@H](CCCCN)NC(=O)[C@H](CCCNC(=N)N)NC(=O)[C@H](Cc1ccc(OC)cc1)NC(=O)[C@H](CCCNC(=N)N)NC(=O)[C@H](CC(N)=O)NC(=O)[C@@H](NC(=O)[C@H](Cc1ccc(Cl)cc1)NC(=O)[C@@H](NC(=O)[C@H](C)NC(=O)[C@H](CC(=O)O)NC(=O)[C@@H](CCCNC(=N)N)NC(=O)[C@H](Cc1ccc(O)cc1)NC(=O)CCCCCCCCCCCNC(=O)Cc1c(F)c(F)c(F)c(F)c1F)[C@@H](C)CC)[C@@H](C)O)C(C)C)[C@@H](C)CC)C(=O)N[C@H](CCCNC(=N)N)C(=O)N[C@@H](CCCCNC(=N)N)C(=O)NCCCCCCCCCCCC(N)=O [AVR-620, 5FPhAC-Ada-Tyr-DArg-Asp-Ala-Ile-Cpa-Thr-Asn-Arg-Tyr(Me)-Arg-Lys-Val-Leu-Abu-Gln-Leu-Ser-Ala-His-Orn-Leu-Leu-Gln-Asp-Ile-Nle-DArg-Har-Ada-NH2] ({Phenylacetyl(2,3,4,5,6-F5)-12Ado}-Y[dR]DAI[Phe(4-Cl)]TNRY(Me)RKVL[Abu]QLSAH[Orn]LLQDI[Nle][dR][hArg][12Ado]-NH2) | 1.769 | 3.753 | 1.567
3 | CCCC[C@H](NC(=O)[C@@H](NC(=O)[C@H](CC(=O)O)NC(=O)[C@H](CCC(N)=O)NC(=O)[C@H](CC(C)C)NC(=O)[C@H](CC(C)C)NC(=O)[C@H](CCCCN)NC(=O)[C@H](CCCNC(=N)N)NC(=O)[C@H](C)NC(=O)[C@H](CO)NC(=O)[C@H](CC(C)C)NC(=O)[C@H](CCC(N)=O)NC(=O)[C@H](CC)NC(=O)[C@H](CC(C)C)NC(=O)[C@@H](NC(=O)[C@H](CCCCN)NC(=O)[C@H](CCCNC(=N)N)NC(=O)[C@H](Cc1ccc(OC)cc1)NC(=O)[C@H](CCCCNC(=N)N)NC(=O)[C@H](CC(N)=O)NC(=O)[C@@H](NC(=O)[C@H](Cc1ccc(Cl)cc1)NC(=O)[C@@H](NC(=O)[C@H](C)NC(=O)[C@H](CC(=O)O)NC(=O)[C@@H](CCCNC(=N)N)NC(=O)[C@H](Cc1ccc(O)cc1)NC(=O)CCCCCCCCCCCNC(=O)Cc1ccccc1)[C@@H](C)CC)[C@@H](C)O)C(C)C)[C@@H](C)CC)C(=O)N[C@H](CCCNC(=N)N)C(=O)N[C@@H](CCCCNC(=N)N)C(=O)NCCCCCCCCCCCC(N)=O [AVR-332] ({PhAc-12Ado}-Y[dR]DAI[Phe(4-Cl)]TN[hArg]Y(Me)RKVL[Abu]QLSARKLLQDI[Nle][dR][hArg][12Ado]-NH2) | 1.643 | – | –
4 | CCCC[C@H](NC(=O)[C@@H](NC(=O)[C@H](CC(=O)O)NC(=O)[C@H](CCC(N)=O)NC(=O)[C@H](CC(C)C)NC(=O)[C@H](CC(C)C)NC(=O)[C@H](CCCCN)NC(=O)[C@H](CCCNC(=N)N)NC(=O)[C@H](C)NC(=O)[C@H](CO)NC(=O)[C@H](CC(C)C)NC(=O)[C@H](CCC(N)=O)NC(=O)[C@H](CC)NC(=O)[C@H](CC(C)C)NC(=O)[C@@H](NC(=O)[C@H](CCCCN)NC(=O)[C@H](CCCNC(=N)N)NC(=O)[C@H](Cc1ccc(OC)cc1)NC(=O)[C@H](CCCCNC(=N)N)NC(=O)[C@H](CC(N)=O)NC(=O)[C@@H](NC(=O)[C@H](Cc1ccc(Cl)cc1)NC(=O)[C@@H](NC(=O)[C@H](C)NC(=O)[C@H](CC(=O)O)NC(=O)[C@@H](CCCNC(=N)N)NC(=O)[C@H](Cc1ccc(O)cc1)NC(=O)CCCCCCCCCCCNC(=O)Cc1c(F)c(F)c(F)c(F)c1F)[C@@H](C)CC)[C@@H](C)O)C(C)C)[C@@H](C)CC)C(=O)N[C@H](CCCNC(=N)N)C(=O)N[C@@H](CCCCNC(=N)N)C(=O)NCCCCCCCC(=O)NC [AVR-322, 5FPhAC-Ada-Tyr-DArg-Asp-Ala-Ile-Cpa-Thr-Asn-Har-Tyr(Me)-Arg-Lys-Val-Leu-Abu-Gln-Leu-Ser-Ala-Arg-Lys-Leu-Leu-Gln-Asp-Ile-Nle-DArg-Har-Aoc-NHCH3] ({Phenylacetyl(2,3,4,5,6-F5)-12Ado}-Y[dR]DAI[Phe(4-Cl)]TN[hArg]Y(Me)RKVL[Abu]QLSARKLLQDI[Nle][dR][hArg][Aoc]-NHMe) | 1.296 | – | –
5 | CCCC[C@H](NC(=O)[C@@H](NC(=O)[C@H](CC(=O)O)NC(=O)[C@H](CCC(N)=O)NC(=O)[C@H](CC(C)C)NC(=O)[C@H](CC(C)C)NC(=O)[C@H](CCCCN)NC(=O)[C@H](CCCNC(=N)N)NC(=O)[C@H](C)NC(=O)[C@H](CO)NC(=O)[C@H](CC(C)C)NC(=O)[C@H](CCC(N)=O)NC(=O)[C@H](CC)NC(=O)[C@H](CC(C)C)NC(=O)[C@@H](NC(=O)[C@H](CCCCN)NC(=O)[C@H](CCCNC(=N)N)NC(=O)[C@H](Cc1ccc(OC)cc1)NC(=O)[C@H](CCCCNC(=N)N)NC(=O)[C@H](CC(N)=O)NC(=O)[C@@H](NC(=O)[C@H](Cc1ccc(Cl)cc1)NC(=O)[C@@H](NC(=O)[C@H](C)NC(=O)[C@H](CC(=O)O)NC(=O)[C@@H](CCCNC(=N)N)NC(=O)[C@H](Cc1ccc(O)cc1)NC(=O)CCCCCCCCCCCNC(=O)Cc1ccccc1)[C@@H](C)CC)[C@@H](C)O)C(C)C)[C@@H](C)CC)C(=O)N[C@H](CCCNC(=N)N)C(=O)N[C@@H](CCCCNC(=N)N)C(=O)NCCCCCCCC(=O)NC [AVR-321, PhAC-Ada-Tyr-DArg-Asp-Ala-Ile-Cpa-Thr-Asn-Har-Tyr(Me)-Arg-Lys-Val-Leu-Abu-Gln-Leu-Ser-Ala-Arg-Lys-Leu-Leu-Gln-Asp-Ile-Nle-DArg-Har-Aoc-NHCH3] ({PhAc-12Ado}-Y[dR]DAI[Phe(4-Cl)]TN[hArg]Y(Me)RKVL[Abu]QLSARKLLQDI[Nle][dR][hArg][Aoc]-NHMe) | 1.414 | – | –
